Source: ChEMBL document CHEMBL3822454, “On the vasoprotective mechanisms underlying novel β-phosphorylated nitrones: Focus on free radical characterization, scavenging and NO-donation in a biological model of oxidative stress” (Eur J Med Chem, 2016)

Assays:
[1] = Antioxidant activity assessed as DPPH scavenging activity measured after 3 mins by spectrophotometric method; type: physicochemical
[2] = Antioxidant activity assessed as inhibition of […]-xanthine oxidase system-mediated superoxide formation measured over 7 mins by lucigenin-based chemiluminescence analysis; type: physicochemical
[3] = Antioxidant activity assessed as AAPH free radical scavenging activity measured as trolox equivalent by TRAP assay; type: physicochemical
[4] = test system: Aorta; assay: Toxicity in Sprague-Dawley rat endothelium-intact aortic rings at 15 mM measured after 20 mins; settings: 15000 µM
[5] = target: Xanthine dehydrogenase/oxidase (Homo sapiens, UniProt P47989); assay: Inhibition of xanthine oxidase (unknown origin) using xanthine as substrate assessed as inhibition of uric acid formation at 1 to 100 uM after 30 mins by spectrophotometric method; settings: 0.5 h
[6] = Cytotoxicity against BAEC assessed as decrease in total intracellular LDH content at 15 mM measured after 1 hr by LDH assay relative to vehicle-treated control; type: cell-based, Bos taurus; design: scale not given: the % may be the effect or the level left; settings: cattle, 15000 µM
[7] = test system: A549; assay: Cytotoxicity against human A549 cells assessed as reduction in cell viability measured after 48 hrs by luminescence-based ATP assay; settings: A549, 48 h
[8] = test system: A549; assay: Cytotoxicity against human A549 cells assessed as reduction in cell viability measured after 48 hrs by MTT assay; type: cell-based; settings: A549, 48 h
[9] = test system: A549; assay: Cytotoxicity against human A549 cells assessed as reduction in cell viability measured after 48 hrs by FMCA assay; type: cell-based; settings: A549, 48 h
[10] = Cytotoxicity against BAEC assessed as reduction in cell viability measured after 24 hrs by MTT assay; design: species or system Bos taurus; settings: cattle
[11] = test system: Aorta; assay: Potentiation of SNP-induced vasorelaxant activity in Sprague-Dawley rat endothelium-intact aortic rings assessed as reduction in L-phenylephrine hydrochloride-induced contraction at 200 uM relative to SNP; type: functional
[12] = Cytotoxicity against BAECs assessed as decrease in total intracellular LDH content at 15 mM measured after 3 hrs by LDH assay relative to vehicle control; type: cell-based, Bos taurus; design: scale not given: the % may be the effect or the level left; settings: cattle, baec, 15000 µM

Xanthine dehydrogenase/oxidase, sequence (P47989 whole entry): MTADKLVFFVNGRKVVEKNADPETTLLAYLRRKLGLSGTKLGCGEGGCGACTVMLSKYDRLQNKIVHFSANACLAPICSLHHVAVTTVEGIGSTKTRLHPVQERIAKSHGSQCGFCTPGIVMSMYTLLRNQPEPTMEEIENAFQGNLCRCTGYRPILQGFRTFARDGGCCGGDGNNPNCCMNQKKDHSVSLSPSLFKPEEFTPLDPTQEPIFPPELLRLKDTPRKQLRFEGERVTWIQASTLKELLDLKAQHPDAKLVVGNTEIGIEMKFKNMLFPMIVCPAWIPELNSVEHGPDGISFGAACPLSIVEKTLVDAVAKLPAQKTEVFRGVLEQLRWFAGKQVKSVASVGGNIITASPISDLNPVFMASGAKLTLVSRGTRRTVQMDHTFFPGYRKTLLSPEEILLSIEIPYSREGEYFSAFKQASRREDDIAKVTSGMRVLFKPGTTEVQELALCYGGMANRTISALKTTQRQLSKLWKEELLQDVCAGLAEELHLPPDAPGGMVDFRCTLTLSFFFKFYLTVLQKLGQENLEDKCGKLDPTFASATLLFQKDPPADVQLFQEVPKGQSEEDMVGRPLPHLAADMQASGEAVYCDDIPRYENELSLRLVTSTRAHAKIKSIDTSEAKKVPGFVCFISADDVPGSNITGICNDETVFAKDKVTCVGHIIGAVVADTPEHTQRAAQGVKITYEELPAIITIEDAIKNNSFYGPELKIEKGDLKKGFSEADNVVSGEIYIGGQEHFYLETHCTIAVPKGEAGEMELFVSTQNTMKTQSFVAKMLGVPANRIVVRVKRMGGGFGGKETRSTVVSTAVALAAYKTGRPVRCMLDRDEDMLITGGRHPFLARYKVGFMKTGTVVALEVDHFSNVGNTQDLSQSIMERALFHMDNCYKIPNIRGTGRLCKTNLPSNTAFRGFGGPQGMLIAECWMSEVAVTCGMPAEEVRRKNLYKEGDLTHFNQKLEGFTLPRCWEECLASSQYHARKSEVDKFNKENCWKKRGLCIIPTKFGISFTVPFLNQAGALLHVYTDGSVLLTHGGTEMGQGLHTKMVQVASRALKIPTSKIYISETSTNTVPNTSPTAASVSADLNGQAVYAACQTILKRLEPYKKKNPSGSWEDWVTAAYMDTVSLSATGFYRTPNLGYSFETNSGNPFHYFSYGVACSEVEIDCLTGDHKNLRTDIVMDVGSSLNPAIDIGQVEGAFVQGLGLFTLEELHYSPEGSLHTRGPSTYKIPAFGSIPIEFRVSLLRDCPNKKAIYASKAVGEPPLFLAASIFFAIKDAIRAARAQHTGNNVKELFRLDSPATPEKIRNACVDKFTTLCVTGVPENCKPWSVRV

SMILES | EC50 [1] [µM] | IC50 [2] [µM] | Activity [3] [equiv] | inhibition (INH) [5] | Activity [4] | Activity [6] [%] | IC50 [7] [µM] | IC50 [8] [µM] | IC50 [9] [µM] | IC10 [10] [µM] | Rmax [11] [%] | Activity [12] [%]
O=c1c(O)c(-c2ccc(O)c(O)c2)oc2cc(O)cc(O)c12 [QUERCETIN] | 13 | 0.5 | 6.28 | – | – | – | – | – | – | – | – | –
CCOP(=O)(OCC)C(C)(C)/[N+]([O-])=C/c1ccc(NC(C)=O)cc1 | > 1000 | 26.3 | 0.02 | Not Active | – | – | – | – | – | – | – | –
CCOC(=O)c1ccc(/C=[N+](\[O-])C(C)(C)P(=O)(OCC)OCC)cc1 | > 1000 | 6.8 | 0.16 | Not Active | – | – | 3600 | 3500 | 4500 | 400 | – | –
O=C(O)c1cc(O)c(O)c(O)c1 [GALLIC ACID] | 7 | 0.7 | 1.18 | – | – | – | 400 | 400 | 400 | < 100 | – | –
CCOP(=O)(OCC)C(C)(C)/[N+]([O-])=C/c1ccccc1O | > 1000 | 33.5 | 0.25 | Not Active | Non-toxic | < 10 | 9300 | 9000 | 8200 | 1400 | 99 | 21
CCOP(=O)(OCC)C(C)NC(C)(C)C (stereo not given) | – | > 40000 | – | – | – | – | – | – | – | – | – | –
CCOP(=O)(OCC)C(C)(C)/[N+]([O-])=C/c1ccc([N+](=O)[O-])cc1 | > 1000 | 9.3 | 0.02 | Not Active | Non-toxic | < 10 | 1000 | 1200 | 1100 | < 100 | 101 | 53

Now from value to molecule, other results behind:

EC50 [1] [µM] | IC50 [2] [µM] | Activity [3] [equiv] | inhibition (INH) [5] | SMILES | Activity [4] | Activity [6] [%] | IC50 [7] [µM] | IC50 [8] [µM] | IC50 [9] [µM] | IC10 [10] [µM] | Rmax [11] [%] | Activity [12] [%]
20 | 13.3 | – | – | Cc1c(C)c2c(c(C)c1O)CCC(C)(C(=O)O)O2 (stereo not given) [TROLOX] | – | – | – | – | – | – | – | –
> 1000 | 43.3 | 1.61 | Not Active | CCOP(=O)(OCC)C(C)(C)/[N+]([O-])=C/c1ccc(O)cc1O | Non-toxic | < 10 | – | – | – | – | – | –
> 1000 | 4.1 | 0.02 | Not Active | CCOP(=O)(OCC)C(C)(C)/[N+]([O-])=C/c1ccc(C(=O)O)cc1 | – | – | 8200 | 7300 | 7900 | 1300 | – | –
> 1000 | 52.3 | 0.02 | Not Active | CCOP(=O)(OCC)C(C)(C)/[N+]([O-])=C/c1cccc([N+](=O)[O-])c1 | Non-toxic | < 10 | – | – | – | – | – | –
61 | 34.9 | 2.16 | – | COc1cc(/C=C/C(=O)O)ccc1O [FERULATE] | – | – | 3200 | 3100 | 2600 | 800 | – | –
35 | 22.4 | 1.64 | – | COc1cc(/C=C/C(=O)O)cc(OC)c1O [SINAPINATE] | – | – | 5700 | 4900 | 4600 | 1200 | – | –
17 | 0.1 | 2.73 | – | O=C(O)/C=C/c1ccc(O)c(O)c1 [CAFFEIC ACID] | – | – | 700 | 700 | 500 | 200 | – | –
